Experimental data published in patent US20240424043A1, “COMPOSITION FOR PREVENTING OR TREATING MUSCLE DISEASE COMPRISING ARALIA ELATA EXTRACT” (KOREA INSTITUTE OF SCIENCE AND TECHNOLOGY, priority 2023, published 2024).

What was measured:
[1] = system: C2C12 myotubes; assay: Myotube cell survival rate after dexamethasone-induced myoatrophy; format: cell-based, mouse; details: 20 μM compound; 100 μM dexamethasone for 24 hours; FIG. 5
Experimental: (§1) Cell culture and differentiation of myoblasts: C2C12 mouse (CRL1772; American type cell collection, USA) derived myoblasts were cultured in Dulbecco's Modified Eagle's Medium (DMEM) medium supplemented with 10 (v/v) % FBS, and after reaching 90% confluence, they were transferred to DMEM medium containing 2 (v/v) % horse serum and cultured for 7 days to differentiate into myotubes.
C2C12 myoblasts were differentiated into myotubes, and then treated with 100 μM of dexamethasone for 24 hours to induce myoatrophy, and 20 μM of 13 compounds isolated from the extract (see Table 1) to determine the effect of alleviating myoatrophy.

[2] = system: Mstn, Myd1, Myog, and Myf5 gene expression in C2C12 mouse-derived myotubes; assay: RT-qPCR of muscle cell differentiation-related gene expression; format: cell-based; details: dexamethasone 10 μM, beta-actin control, FIG. 7; for Mstn gene expression (marker of muscle growth inhibition): increased by dexamethasone; for Myd1 gene expression (marker of myogenic differentiation) / Myf5 gene expression (marker of myogenic differentiation) / Myog gene expression (marker of myogenic differentiation): reduced by dexamethasone
Experimental: (§2) C2C12 mouse-derived myotubes treated with dexamethasone 10 μM were washed twice with PBS, and total RNA was extracted according to the user-recommended protocol of an RNA extraction kit (GeneAll RNA isolation kit, Seoul, South Korea). cDNA was synthesized from the extracted RNA and subjected to real time-quantitative polymerase chain reaction (RT-qPCR). POR analysis was performed according to the user-recommended cycling conditions of the analyzer (Applied Biosystems 7900 HT thermal cycler, Applied Biosystems). To determine the expression level of each mRNA, fold change values relative to the control were calculated using beta-actin as an endogenous control, and relative expression levels were compared.

[3] = system: C2C12 myotubes; assay: Oxidative stress (GSH content) and mitochondrial function in dexamethasone-treated myotubes; format: cell-based, mouse; details: 20 μM compound, 100 μM dexamethasone for 24 hours, FIG. 8; for glutathione (GSH) content: decreased by dexamethasone
Experimental: as §1
As in Example 4, C2C12 myoblasts were differentiated into myotubes, and then treated with 100 μM of dexamethasone for 24 hours to induce oxidative stress or mitochondrial dysfunction, and then treated with 20 μM of three compounds (catechol, 4-ethyl catechol, and methyl dihydroxycaffeate) isolated from the extract of Aralia Elata to determine their efficacy in ameliorating oxidative stress and mitochondrial dysfunction. […] Furthermore, the mitochondrial dysfunction induced by dexamethasone treatment was ameliorated by treatment with the present compound derived from the extract of Aralia Elata (FIG. 8).

[4] = system: Ppargc1a, UCp3, Tomm20, and Tfam gene expression in C2C12 mouse-derived cells; assay: RT-qPCR of exercise performance-related gene expression; format: cell-based; details: dexamethasone 10 μM, beta-actin control, reduced by dexamethasone, FIG. 9
Experimental: as §2, with “mouse-derived endodermal cells” for “mouse-derived myotubes”, “extracted RNA,” for “extracted RNA”, “(RT-qPCR). PCR” for “(RT-qPCR). POR”

[5] = system: Ppargc1a, UCp3, Tomm20, and Tfam gene expression in C2C12 mouse-derived endodermal cells; assay: as above; format: cell-based; details: dexamethasone 10 μM, beta-actin control, reduced by dexamethasone, FIG. 9
Experimental: as §2, with “mouse-derived endodermal cells” for “mouse-derived myotubes”, “extracted RNA,” for “extracted RNA”, “(RT-qPCR). PCR” for “(RT-qPCR). POR”

[6] = system: mice in which sarcopenia was induced by administration of Dexamethasone; assay: Grip strength and body weight in dexamethasone-induced sarcopenia mouse model; format: in vivo, C57BL/6J mice; details: compared to the group treated only with Dexamethasone (25 mg/kg i.p., 2 weeks); oral once daily 4 weeks; AE 10, 50 or 100 mg/kg, S-23 25 mg/kg; FIG. 2
Experimental: The present inventors created a sarcopenia mouse model to confirm the effectiveness of Aralia Elata extract prepared in the above-described preparation example to treat or improve sarcopenia, and measured grip strength using the control mouse and the sarcopenia mouse model.
The mice used to confirm the efficacy of Aralia Elata extract were prepared through the following process.
The test substance was prepared in the form of a liquid suspension using 0.5% CMC and administered for 4 weeks. To correct for the placebo effect of 0.5% CMC and the weight loss effect due to administration stress, 0.5% CMC was orally administered daily to the vehicle control group. Two weeks after administration of the test substance, the experimental group was administered intraperitoneal injection of Dexamethasone for two weeks to induce sarcopenia, and the normal control group was administered saline solution by intraperitoneal injection. All mice were provided with the same AlN76 diet (Research Diets), and the test substances were administered for an additional 2 weeks for a total of 4 weeks. The dark: light cycle was maintained at 12-hour:12-hour intervals, and water was allowed to be consumed freely. […] (Dex: Dexamethasone sarcopenia-inducing substance (25 mg/kg), AE: Aralia Elata extract (10, 50, or 100 mg/kg)).

Row | Compound | viability of myotubes reduced by dexamethasone treatment [1] | Mstn gene expression (marker of muscle growth inhibition) [2] | Myd1 gene expression (marker of myogenic differentiation) [2] | Myf5 gene expression (marker of myogenic differentiation) [2] | Myog gene expression (marker of myogenic differentiation) [2] | mitochondrial dysfunction induced by dexamethasone treatment [3] | glutathione (GSH) content [3] | Ppargc1a gene expression [4] | Tfam gene expression [5] | Tomm20 gene expression [5] | UCp3 gene expression [5] | body weight [6] | grip strength [6]
1 | CCc1ccc(O)c(O)c1 [Compound 4, 4-ethyl catechol] | significantly superior effect | – | – | – | – | – | – | – | – | – | – | – | –
2 | Oc1ccccc1O [Compound 3, Catechol] | significantly superior effect | decreased | increased | increased | increased | ameliorated | increased again | increased | increased | increased | increased | – | –
3 | C[C@](O)(COc1ccc(Cl)c(F)c1)C(=O)Nc1ccc(C#N)c(C(F)(F)F)c1 [Compound S-23] | – | – | – | – | – | – | – | – | – | – | – | increased | increased
4 | CCc1ccc(O)c(O)c1 [4-ethyl catechol] | – | decreased | increased | increased | increased | ameliorated | increased again | increased | increased | increased | increased | – | –
